From patent US11952349B2, “Anti-cancer nuclear hormone receptor-targeting compounds” (Nuvation Bio Inc., priority 2019, dated 2024)

The molecules below were run against T1, AR, cytosol from LnCaP cells (Homo sapiens, UniProt P10275, T878A) (assay: AR binding assay, 3H-R1881 (Biological Example 2)). Details: not given.
T1 construct: AR in LNCaP cytosol was used; endogenous in cells; host or cells: LNCaP cells (cytosol)
T1 sequence (P10275 1-920 T878A): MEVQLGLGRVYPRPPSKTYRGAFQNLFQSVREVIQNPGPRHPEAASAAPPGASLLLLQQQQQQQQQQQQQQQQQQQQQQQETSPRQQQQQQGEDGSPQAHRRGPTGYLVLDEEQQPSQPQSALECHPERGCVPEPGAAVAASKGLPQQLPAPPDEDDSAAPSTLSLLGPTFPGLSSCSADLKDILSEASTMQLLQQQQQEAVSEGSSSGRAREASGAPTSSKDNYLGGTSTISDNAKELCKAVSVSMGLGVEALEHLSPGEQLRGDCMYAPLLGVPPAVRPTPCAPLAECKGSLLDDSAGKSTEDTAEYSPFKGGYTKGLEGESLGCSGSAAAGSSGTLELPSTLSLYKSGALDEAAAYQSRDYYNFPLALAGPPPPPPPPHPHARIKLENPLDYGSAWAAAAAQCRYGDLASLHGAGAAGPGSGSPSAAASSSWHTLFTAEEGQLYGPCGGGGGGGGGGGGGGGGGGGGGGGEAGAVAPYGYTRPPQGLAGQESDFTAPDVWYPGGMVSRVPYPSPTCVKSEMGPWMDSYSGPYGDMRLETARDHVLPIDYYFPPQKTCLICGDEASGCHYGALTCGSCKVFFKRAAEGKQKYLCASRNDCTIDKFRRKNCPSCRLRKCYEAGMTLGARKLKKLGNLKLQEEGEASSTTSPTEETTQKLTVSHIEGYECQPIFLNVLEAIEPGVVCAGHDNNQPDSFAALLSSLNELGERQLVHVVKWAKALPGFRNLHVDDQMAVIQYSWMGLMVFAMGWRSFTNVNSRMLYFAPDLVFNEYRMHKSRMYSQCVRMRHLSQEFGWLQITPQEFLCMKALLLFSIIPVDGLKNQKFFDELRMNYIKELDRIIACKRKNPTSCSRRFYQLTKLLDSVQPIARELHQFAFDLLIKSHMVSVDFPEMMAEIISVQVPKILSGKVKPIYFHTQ
Protocol: AR binding assay: To assess AR binding, test compound (top dose […], 4 fold serial dilution, 8 point dose response) and control (progesterone) were transferred to the assay plate. Cytosol from LnCaP cells was added to the plate, followed by addition of radiolabeled ^3H-R1881 at a final concentration of 1 nM. The plate was sealed, and the reaction was incubated at 300 rpm at 4° C. for 24 hrs. Radioligand absorption buffer (10 mM Tris-HCl, pH 7.4; 1.5 mM EDTA; 1 mM DTT; 0.25% charcoal; 0.0025% dextran) was then added to the plate, mixed, and incubated at 4° C. for 15 minutes. The plate was then centrifuged at 3000 rpm for 30 minutes at 4° C. The supernatant was transferred to the scint-tube and Tri-carb was used for scintillation counting. The data was analyzed using GraphPadPrism v5.0 and binding IC50 was determined as the concentration where 50% inhibition of radioligand binding was observed.

Row | Compound | IC50
1 | C[C@@]12CCC(=O)C[C@H]1CC[C@H]1[C@H]2CC[C@]2(C)[C@@H]1CC[C@H]2OCCCCCCNC(=O)c1cc(Cc2n[nH]c(=O)c3ccccc23)ccc1F (stereo in doubt) [Compound 1426, N-(6-((5R,8S,9R,10R,13R,14R,17R)-10,13-dimethyl-3-oxohexadecahydro-1H-cyclopenta[a]phenanthren-17-yloxy)hexyl)-2-fluoro-5-((4-oxo-3,4-dihydrophthalazin-1-yl)methyl)benzamide] | 100 to 1000 nM
2 | C[C@]12C[C@H](CCCCCC(=O)N3CCN(C(=O)c4cc(Cc5n[nH]c(=O)c6ccccc56)ccc4F)CC3)C3=C4CCC(=O)C=C4CC[C@H]3[C@@H]1CCC2O (stereo partly drawn) [Compound 138, 4-(4-fluoro-3-(4-(6-((8S,11S,13S,14S)-17-hydroxy-13-methyl-3-oxo-2,3,6,7,8,11,12,13,14,15,16,17-dodecahydro-1H-cyclopenta[a]phenanthren-11-yl)hexanoyl)piperazine-1-carbonyl)benzyl)phthalazin-1(2H)-one] | 10 to 100 nM
3 | C[C@]12Cc3cn[nH]c3C[C@@H]1CC[C@@H]1[C@@H]2CC[C@]2(C)[C@@H](OCCCCCC(=O)N3CCN(C(=O)c4cc(Cc5n[nH]c(=O)c6ccccc56)ccc4F)CC3)CC[C@@H]12 [Compound 1394, 4-(3-(4-(6-(((1S,3aS,3bR,5aS,10aS,10bS,12aS)-10a,12a-dimethyl-1,2,3,3a,3b,4,5,5a,6,7,10,10a,10b,11,12,12a-hexadecahydrocyclopenta[5,6]naphtho[1,2-f]indazol-1-yl)oxy)hexanoyl)piperazine-1-carbonyl)-4-fluorobenzyl)phthalazin-1(2H)-one] | 100 to 1000 nM

Same assay, conditions: Table 7; 3H-R1881 1 nM; read-out: AR binding

Row | Compound | IC50
4 | Cn1ncnc1C1c2n[nH]c(=O)c3cc(F)cc(c23)N[C@@H]1c1ccc(NC(=O)CCCCCO[C@@H]2CC[C@H]3[C@@H]4CC[C@H]5CCCC[C@]5(C)[C@H]4CC[C@]23C)cc1 (stereo partly drawn) [Compound 1128, 6-((5R,8R,9S,10S,13S,14S,17R)-10,13-dimethylhexadecahydro-1H-cyclopenta[a]phenanthren-17-yloxy)-N-(4-((8S)-5-fluoro-9-(1-methyl-1H-1,2,4-triazol-5-yl)-3-oxo-3,7,8,9-tetrahydro-2H-pyrido[4,3,2-de]phthalazin-8-yl)phenyl)hexanamide] | 1000 to 10000 nM

Same assay, conditions: Table 8; 3H-R1881 1 nM; read-out: AR binding

Row | IC50 | Compound
5 | 10 to 100 nM | CC#C[C@]1(O)CC[C@H]2[C@@H]3CCC4=CC(=O)CCC4=C3[C@@H](c3ccc(N(C)CCCCCC(=O)N4CCN(C(=O)c5cc(Cc6n[nH]c(=O)c7ccccc67)ccc5F)CC4)cc3)C[C@@]21C [Compound 135, 4-(4-fluoro-3-(4-(6-((4-((8S,11R,13S,14S,17S)-17-hydroxy-13-methyl-3-oxo-17-(prop-1-ynyl)-2,3,6,7,8,11,12,13,14,15,16,17-dodecahydro-1H-cyclopenta[a]phenanthren-11-yl)phenyl)(methyl)amino)hexanoyl)piperazine-1-carbonyl)benzyl)phthalazin-1(2H)-one]
6 | < 10 nM | CC(=O)O[C@]1(C(C)=O)CC[C@H]2[C@@H]3CCC4=CC(=O)CCC4=C3[C@@H](c3ccc(N(C)CCCCCC(=O)N4CCN(C(=O)c5cc(Cc6n[nH]c(=O)c7ccccc67)ccc5F)CC4)cc3)C[C@@]21C [Compound 1378, (8S,11R,13S,14S,17R)-17-acetyl-11-(4-((6-(4-(2-fluoro-5-((4-oxo-3,4-dihydrophthalazin-1-yl)methyl)benzoyl)piperazin-1-yl)-6-oxohexyl)(methyl)amino)phenyl)-13-methyl-3-oxo-2,3,6,7,8,11,12,13,14,15,16,17-dodecahydro-1H-cyclopenta[a]phenanthren-17-yl acetate]
7 | < 10 nM | CC(=O)O[C@]1(C(C)=O)CC[C@H]2[C@@H]3CCC4=CC(=O)CCC4=C3[C@@H](c3ccc(N(C)CCCCCC(=O)NCCOCCOCC(=O)N4CCN(C(=O)c5cc(Cc6n[nH]c(=O)c7ccccc67)ccc5F)CC4)cc3)C[C@@]21C [Compound 1384, (8S,11R,13S,14S,17R)-17-acetyl-11-(4-((6-(2-(2-(2-(4-(2-fluoro-5-((4-oxo-3,4-dihydrophthalazin-1-yl)methyl)benzoyl)piperazin-1-yl)-2-oxoethoxy)ethoxy)ethylamino)-6-oxohexyl)(methyl)amino)phenyl)-13-methyl-3-oxo-2,3,6,7,8,11,12,13,14,15,16,17-dodecahydro-1H-cyclopenta[a]phenanthren-17-yl acetate]
8 | 10 to 100 nM | CC#C[C@]1(O)CC[C@H]2[C@@H]3CCC4=CC(=O)CCC4=C3[C@@H](c3ccc(N(C)CCCCCC(=O)NCCOCCOCC(=O)N4CCN(C(=O)c5cc(Cc6n[nH]c(=O)c7ccccc67)ccc5F)CC4)cc3)C[C@@]21C [Compound 1429, N-(2-(2-(2-(4-(2-fluoro-5-((4-oxo-3,4-dihydrophthalazin-1-yl)methyl)benzoyl)piperazin-1-yl)-2-oxoethoxy)ethoxy)ethyl)-6-((4-((8S,11R,13S,14S,17S)-17-hydroxy-13-methyl-3-oxo-17-(prop-1-ynyl)-2,3,6,7,8,11,12,13,14,15,16,17-dodecahydro-1H-cyclopenta[a]phenanthren-11-yl)phenyl)(methyl)amino)hexanamide]

Row | Compound | IC50
9 | C[C@]12CC[C@H]3[C@@H](CCC4=CC(=O)CC[C@@]43C)[C@@H]1CC[C@@H]2C(=O)COCCCCCC(=O)N1CCN(C(=O)c2cc(Cc3n[nH]c(=O)c4ccccc34)ccc2F)CC1 [Compound 1386, 4-(3-(4-(6-(2-((8S,9S,10R,13S,14S,17S)-10,13-dimethyl-3-oxo-2,3,6,7,8,9,10,11,12,13,14,15,16,17-tetradecahydro-1H-cyclopenta[a]phenanthren-17-yl)-2-oxoethoxy)hexanoyl)piperazine-1-carbonyl)-4-fluorobenzyl)phthalazin-1(2H)-one] | 10 to 100 nM
